# Results as given in ChEMBL document CHEMBL2074086, “Cloning, in vitro expression, and tissue distribution of a human prostaglandin transporter cDNA(hPGT)” (J Clin Invest, 1996).
# Target: Solute carrier organic anion transporter family member 2A1 (Homo sapiens, UniProt Q92959)
# Test: TP_TRANSPORTER: uptake in PGT-expressing HeLa cells
# Type: functional, cell-based
Compound,K1/2 [µM],Activity
CCCCC[C@H](O)/C=C/[C@H]1[C@H](O)CC(=O)[C@@H]1CCCCCCC(=O)O [ALPROSTADIL],0.082,
CCCCC[C@H](O)/C=C/[C@H]1[C@H](O)CC(=O)[C@@H]1C/C=C\CCCC(=O)O [DINOPROSTONE],0.1,
CCCCC[C@H](O)/C=C/[C@@H]1[C@@H](C/C=C\CCCC(=O)O)[C@@H](O)C[C@H]1O [DINOPROST],0.092,
CC#CCC(C)[C@H](O)/C=C/[C@@H]1[C@H]2C/C(=C/CCCC(=O)O)C[C@H]2C[C@H]1O (stereo partly specified) [ILOPROST],,is not a substrate [-]
CCCCC[C@H](O)/C=C/[C@H]1C(=O)C[C@H](O)[C@@H]1C/C=C\CCCC(=O)O [PROSTAGLANDIN D2],0.083,
CCCCC[C@H](O)/C=C/[C@H]1OC(O)C[C@H](O)[C@@H]1C/C=C\CCCC(=O)O (stereo partly specified) [THROMBOXANE B2],0.182,
